For test [1], the system named is Rhizoctonia solani. Description: Antifungal activity against Rhizoctonia solani GXE4 at 30 ug/disc after 48 hrs by paper disc diffusion assay. In kind it is functional, organism-based.
Test [2] concerns Globisporangium ultimum. Description: Antifungal activity against Pythium ultimum PR9.00318 at 30 ug/disc after 48 hrs by paper disc diffusion assay. In kind it is functional, organism-based.
Test [3] concerns the target DNA topoisomerase 2-alpha (Homo sapiens) (UniProt P11388). The test can be described thus: Inhibition of human recombinant DNA topoisomerase 2alpha-mediated relaxation of supercoiled pBR322 DNA at 100 uM after 30 mins by agarose gel electrophoresis.
Test [4] can be described thus: Antifungal activity against Monilia albican ATCC 10231 at 30 ug/disc after 48 hrs by paper disc diffusion assay. The format is functional.
For test [5], the system named is Bacillus subtilis. The test can be described thus: Antibacterial activity against Bacillus subtilis ACCC 11060 at 30 ug/disc after 24 hrs by paper disc diffusion assay. In kind it is functional. The note with it: ACCC 11060, 24 h, read-out: DIZ.
The species named for test [6] is Bos taurus. The test can be described thus: Inhibition of calf thymus DNA topoisomerase 1-mediated relaxation of supercoiled pBR322 DNA at 100 uM after 30 mins by agarose gel electrophoresis.
In test [7] the test system is Mycolicibacterium smegmatis. The test can be described thus: Antibacterial activity against Mycobacterium smegmatis MC2 155 at 30 ug/disc after 24 hrs by paper disc diffusion assay. In kind it is functional. The following applies: str. MC2 155, 24 h, read-out: DIZ.

Calls of active or inactive are those of the source. The calls are words filed in the database; no cut-off is given here.

Sequence of DNA topoisomerase 2-alpha (Homo sapiens) (P11388 whole entry, the tested form may be a part): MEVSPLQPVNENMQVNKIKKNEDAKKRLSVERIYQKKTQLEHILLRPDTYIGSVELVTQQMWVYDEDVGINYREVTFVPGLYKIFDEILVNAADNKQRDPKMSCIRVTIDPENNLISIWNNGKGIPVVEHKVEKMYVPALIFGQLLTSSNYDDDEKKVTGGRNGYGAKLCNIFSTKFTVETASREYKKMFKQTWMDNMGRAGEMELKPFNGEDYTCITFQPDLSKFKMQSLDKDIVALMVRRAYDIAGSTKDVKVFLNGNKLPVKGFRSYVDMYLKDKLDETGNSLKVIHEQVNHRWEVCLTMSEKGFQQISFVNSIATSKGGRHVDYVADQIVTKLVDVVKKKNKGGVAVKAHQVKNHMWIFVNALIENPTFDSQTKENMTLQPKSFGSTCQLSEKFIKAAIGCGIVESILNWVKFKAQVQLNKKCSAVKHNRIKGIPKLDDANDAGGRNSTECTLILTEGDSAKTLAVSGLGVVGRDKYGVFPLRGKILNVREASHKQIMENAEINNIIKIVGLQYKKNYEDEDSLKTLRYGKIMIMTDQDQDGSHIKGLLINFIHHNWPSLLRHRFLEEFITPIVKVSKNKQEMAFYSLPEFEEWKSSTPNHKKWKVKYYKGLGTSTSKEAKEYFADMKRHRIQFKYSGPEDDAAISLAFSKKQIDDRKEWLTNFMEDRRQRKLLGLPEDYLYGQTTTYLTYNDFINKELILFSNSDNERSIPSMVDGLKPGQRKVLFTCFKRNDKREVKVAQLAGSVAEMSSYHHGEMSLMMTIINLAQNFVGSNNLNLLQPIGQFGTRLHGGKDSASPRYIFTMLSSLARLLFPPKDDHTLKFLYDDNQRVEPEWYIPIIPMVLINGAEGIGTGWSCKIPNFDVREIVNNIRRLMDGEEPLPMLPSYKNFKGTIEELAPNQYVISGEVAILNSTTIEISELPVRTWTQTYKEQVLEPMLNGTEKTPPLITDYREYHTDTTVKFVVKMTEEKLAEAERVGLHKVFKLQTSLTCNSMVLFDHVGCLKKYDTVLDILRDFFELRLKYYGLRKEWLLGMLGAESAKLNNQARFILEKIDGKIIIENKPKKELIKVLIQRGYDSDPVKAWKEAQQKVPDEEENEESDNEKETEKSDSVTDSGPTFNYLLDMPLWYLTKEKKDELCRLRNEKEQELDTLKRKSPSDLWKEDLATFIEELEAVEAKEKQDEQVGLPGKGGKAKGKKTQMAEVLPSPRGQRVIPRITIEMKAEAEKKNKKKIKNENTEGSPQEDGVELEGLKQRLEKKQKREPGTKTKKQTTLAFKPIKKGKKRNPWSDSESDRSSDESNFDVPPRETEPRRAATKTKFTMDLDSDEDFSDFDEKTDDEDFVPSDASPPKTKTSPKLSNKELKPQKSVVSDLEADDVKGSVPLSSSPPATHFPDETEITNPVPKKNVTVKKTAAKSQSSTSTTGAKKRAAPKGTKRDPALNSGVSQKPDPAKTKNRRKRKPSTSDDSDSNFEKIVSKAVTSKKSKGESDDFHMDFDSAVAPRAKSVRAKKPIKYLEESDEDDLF

For `COc1c(-c2ccccc2)cc(O[C@@H]2O[C@H](C(=O)O)[C@@H](O)[C@H](O)[C@H]2O)c(-c2ccccc2)c1O`, the result in test [1], in test [2] and in test [4] was inactive. For the same compound, in test [3], the inhibition result is “Active”.
Regarding `COC(=O)[C@H]1O[C@@H](Oc2c(-c3ccccc3)cc(O)c(-c3ccccc3)c2O)[C@H](O)[C@@H](O)[C@@H]1O`, the result in test [1], in test [2] and in test [4] was inactive. In addition, the zone of inhibition at 30 µg/disc came out at 14 mm in test [5] and 12 mm in test [7]. Moreover, the inhibition entry in test [6] and in test [3] was “Active” in each case.
Take `O=C(O)[C@H]1O[C@@H](Oc2c(-c3ccccc3)cc(O)c(-c3ccccc3)c2O)[C@H](O)[C@@H](O)[C@@H]1O`: the result in test [1], in test [2] and in test [4] was inactive. In addition, the zone of inhibition at 30 µg/disc in test [5] turned out to be 15.8 mm; in test [7] it was 11.2 mm. The inhibition entry in test [3] was “Active”.
For `Cn1c(=O)sc2c(-c3ccccc3)c(O)c(O[C@@H]3O[C@H](C(=O)O)[C@@H](O)[C@H](O)[C@H]3O)c(-c3ccccc3)c21`, the result in test [1], in test [2] and in test [4] was inactive. Moreover, the inhibition entry in test [6] and in test [3] was “inactive” each time.
For the compound `O=C(O)[C@H]1O[C@@H](Oc2c(O)c(-c3ccccc3)c3scnc3c2-c2ccccc2)[C@H](O)[C@@H](O)[C@@H]1O`, the result in test [1], in test [2] and in test [4] was inactive. The inhibition result in test [6] and in test [3] was “inactive” throughout.

The record behind these values is ChEMBL document CHEMBL3120074, “p-Terphenyl O-β-glucuronides, DNA topoisomerase inhibitors from Streptomyces sp. LZ35ΔgdmAI” (2014).
